According to patent US20150315188A1, “COMPOUNDS AND METHODS FOR TREATMENT OF HYPERTENSION” (MEDIVATION TECHNOLOGIES, INC., priority 2012, published 2015):

How the values were obtained:
Parameters in all cases: purchased Milipore (Millipore)
[1] = target: T1, Human adrenergic α2A receptor (Homo sapiens, UniProt P08913); assay: Radioligand binding, adrenergic α2A (Protocol Group B); conditions: Protocol Group B; for Percentage inhibition of ligand binding, Adrenergic α2A (0.1 μM) / inhibition at 0.1 µM: 0.1 μM compound; for Percentage inhibition of ligand binding, Adrenergic α2A (0.3 μM) / inhibition at 0.3 µM: 0.3 μM compound; for Ki: estimated Ki; for inhibition at 0.1 µM: read-out: Percentage inhibition of ligand binding, Adrenergic α2A (0.1 μM); for inhibition at 0.3 µM: read-out: Percentage inhibition of ligand binding, Adrenergic α2A (0.3 μM)
T1 sequence (P08913 1-465): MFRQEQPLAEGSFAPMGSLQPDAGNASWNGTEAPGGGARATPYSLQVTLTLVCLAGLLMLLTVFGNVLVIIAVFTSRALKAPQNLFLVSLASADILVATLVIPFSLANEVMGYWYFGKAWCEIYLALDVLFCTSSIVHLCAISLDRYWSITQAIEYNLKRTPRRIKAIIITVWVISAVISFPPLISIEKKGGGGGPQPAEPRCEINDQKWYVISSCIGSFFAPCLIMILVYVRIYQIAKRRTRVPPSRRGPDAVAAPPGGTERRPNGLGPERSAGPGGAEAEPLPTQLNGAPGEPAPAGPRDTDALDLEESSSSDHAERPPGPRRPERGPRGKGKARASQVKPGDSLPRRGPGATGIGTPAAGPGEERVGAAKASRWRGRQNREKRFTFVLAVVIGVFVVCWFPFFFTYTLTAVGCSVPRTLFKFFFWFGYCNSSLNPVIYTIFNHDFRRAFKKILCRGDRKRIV
Outline: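 Compounds (1% DMSO vehicle, various concentrations) competed against 2 nM [^3H]MK-912 on recombinant receptor membranes for 60 min at 25° C, Tris-HCl pH 7.4 buffer with Mg2+, Ca2+, BSA. Bound radioligand filtered and counted; 10 μM rauwolscine set nonspecific binding. Values: percent inhibition of specific binding or estimated Ki.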

[2] = target: T2, Human adrenergic α2B receptor (Homo sapiens, UniProt P18089); assay: Radioligand binding, adrenergic α2B (Protocol Group B); conditions: Protocol Group B; for Percentage inhibition of ligand binding, Adrenergic α2B (10 nM) / inhibition at 0.01 µM: 10 nM compound; for Percentage inhibition of ligand binding, Adrenergic α2B (10 nM): 0.01 µM; for Percentage inhibition of ligand binding, Adrenergic α2B (30 nM) / inhibition at 0.03 µM: 30 nM compound; for Percentage inhibition of ligand binding, Adrenergic α2B (0.1 μM) / inhibition at 0.1 µM: 0.1 μM compound; for Ki: estimated Ki, read-out: Ki α2B; for inhibition at 0.01 µM: read-out: Percentage inhibition of ligand binding, Adrenergic α2B (10 nM); for inhibition at 0.03 µM: read-out: Percentage inhibition of ligand binding, Adrenergic α2B (30 nM); for inhibition at 0.1 µM: read-out: Percentage inhibition of ligand binding, Adrenergic α2B (0.1 μM)
T2 sequence (P18089 1-450): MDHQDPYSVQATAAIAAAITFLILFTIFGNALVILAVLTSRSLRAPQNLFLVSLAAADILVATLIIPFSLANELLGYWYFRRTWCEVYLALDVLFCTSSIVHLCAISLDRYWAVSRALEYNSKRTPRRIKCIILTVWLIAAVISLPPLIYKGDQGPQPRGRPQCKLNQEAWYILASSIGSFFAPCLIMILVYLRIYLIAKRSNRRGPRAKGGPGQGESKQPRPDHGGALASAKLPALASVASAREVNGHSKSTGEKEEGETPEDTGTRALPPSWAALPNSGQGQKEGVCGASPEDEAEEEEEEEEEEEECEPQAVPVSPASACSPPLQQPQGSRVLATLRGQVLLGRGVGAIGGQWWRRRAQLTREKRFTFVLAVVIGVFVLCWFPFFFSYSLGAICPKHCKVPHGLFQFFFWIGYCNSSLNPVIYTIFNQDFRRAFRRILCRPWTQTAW
Outline: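 Compounds at various concentrations in 1% DMSO were tested on recombinant membranes in Tris-HCl pH 7.4 buffer containing MgCl2, CaCl2 and 0.2% BSA.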

[3] = target: T3, Human adrenergic α1B receptor (Homo sapiens, UniProt P35368); assay: Radioligand binding, adrenergic α1B (Protocol Group B); conditions: Protocol Group B; for Percentage inhibition of ligand binding, Adrenergic α1B (0.1 μM) / inhibition at 0.1 µM: 0.1 μM compound; for Percentage inhibition of ligand binding, Adrenergic α1B (0.3 μM) / inhibition at 0.3 µM: 0.3 μM compound; for Ki: estimated Ki; for inhibition at 0.3 µM: read-out: Percentage inhibition of ligand binding, Adrenergic α1B (0.3 μM); for inhibition at 0.1 µM: read-out: Percentage inhibition of ligand binding, Adrenergic α1B (0.1 μM)
T3 sequence (P35368 1-520): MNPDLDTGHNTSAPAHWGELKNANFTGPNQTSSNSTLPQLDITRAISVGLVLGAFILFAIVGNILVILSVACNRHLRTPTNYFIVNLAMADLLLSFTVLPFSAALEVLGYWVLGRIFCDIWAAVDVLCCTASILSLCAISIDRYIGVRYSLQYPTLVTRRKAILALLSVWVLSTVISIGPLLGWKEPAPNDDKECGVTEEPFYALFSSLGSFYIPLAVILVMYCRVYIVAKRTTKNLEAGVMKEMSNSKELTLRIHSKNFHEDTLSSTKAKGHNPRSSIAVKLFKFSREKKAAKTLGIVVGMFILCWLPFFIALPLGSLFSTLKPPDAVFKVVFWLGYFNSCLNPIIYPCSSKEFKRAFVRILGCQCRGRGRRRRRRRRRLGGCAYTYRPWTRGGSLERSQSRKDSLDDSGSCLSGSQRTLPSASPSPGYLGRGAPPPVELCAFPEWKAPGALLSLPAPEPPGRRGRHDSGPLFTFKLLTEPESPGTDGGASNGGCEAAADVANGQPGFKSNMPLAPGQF
Outline: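 Values are percent inhibition of specific [3H]prazosin (0.3 nM) binding or estimated Ki, from filtration counting. Human α1B recombinant membranes, Tris-HCl pH 7.4 buffer with MgCl2 and EDTA, 60 min at 25 °C, 1% DMSO vehicle; 10 μM prazosin defined nonspecific binding.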

| SMILES | Percentage inhibition of ligand binding, Adrenergic α2A (0.1 μM) [1] [%] | Percentage inhibition of ligand binding, Adrenergic α2A (0.3 μM) [1] [%] | Ki [1] [nM] | Percentage inhibition of ligand binding, Adrenergic α2B (10 nM) [2] [%] | Percentage inhibition of ligand binding, Adrenergic α2B (30 nM) ([2]; 0.03 µM) [%] | Percentage inhibition of ligand binding, Adrenergic α2B (0.1 μM) [2] [%] | Ki [2] [nM] | Percentage inhibition of ligand binding, Adrenergic α1B (0.1 μM) [3] [%] | Percentage inhibition of ligand binding, Adrenergic α1B (0.3 μM) [3] [%] | Ki [3] [nM] | inhibition at 0.1 µM [1] [%] | inhibition at 0.3 µM [1] [%] | inhibition at 0.01 µM [2] [%] | inhibition at 0.03 µM [2] [%] | inhibition at 0.1 µM [2] [%] | inhibition at 0.3 µM [3] [%] | Percentage inhibition of ligand binding, Adrenergic α2B (30 nM) [2] [%] | inhibition at 0.1 µM [3] [%] |
| --- | --- | --- | --- | --- | --- | --- | --- | --- | --- | --- | --- | --- | --- | --- | --- | --- | --- | --- |
| Cc1ccc2c(c1)c1c(n2C[C@@H](OC2CCCC2)c2ccncc2)CCN2CCC[C@H]12 [compound 82, (11cR)-7-[(25)-2-(cyclopentoxy)-2-(4-pyridyl)ethyl]-10-methyl-1,2,3,5,6,11c-hexahydroindolizino[7,8-b]indole] |  |  | 4.5 |  |  |  | 1.59 |  |  | 32.7 | 92 | 97 | 98 | 99 |  | 81 |  | 56 |
| CC(O)(Cn1c2c(c3cc(Cl)cc(F)c31)C1CCCN1CC2)c1ccncc1 (single isomer, unassigned) [52b] | 72 | 78 | 21.7 | 94 | 96 | 99 | 0.71 | 35 | 73 | 39.8 |  |  |  |  |  |  |  |  |
| CC(O)(Cn1c2c(c3cc(F)ccc31)C1CCCN1CC2)c1ccncc1 (single isomer, unassigned) [31b] | 26 | 38 | 362 | 68 |  | 97 | 2.6 | 30 | 50 | 134 |  |  |  |  |  |  | 90 |  |
| Cc1cc(F)c2c(c1)c1c(n2CC(C)(O)c2cccnc2)CCN2CCCC12 (single isomer, unassigned) [79b] |  |  | 47.6 |  |  |  | 1.55 |  |  |  | 55 | 74 | 86 | 95 | 97 | 57 |  | 28 |

Second part, led by results:

| Percentage inhibition of ligand binding, Adrenergic α2A (0.1 μM) [1] [%] | Percentage inhibition of ligand binding, Adrenergic α2A (0.3 μM) [1] [%] | Ki [1] [nM] | Percentage inhibition of ligand binding, Adrenergic α2B (10 nM) [2] [%] | Percentage inhibition of ligand binding, Adrenergic α2B (30 nM) ([2]; 0.03 µM) [%] | Percentage inhibition of ligand binding, Adrenergic α2B (0.1 μM) [2] [%] | Ki [2] [nM] | Percentage inhibition of ligand binding, Adrenergic α1B (0.1 μM) [3] [%] | Percentage inhibition of ligand binding, Adrenergic α1B (0.3 μM) [3] [%] | Ki [3] [nM] | inhibition at 0.1 µM [1] [%] | inhibition at 0.3 µM [1] [%] | inhibition at 0.01 µM [2] [%] | inhibition at 0.03 µM [2] [%] | inhibition at 0.1 µM [2] [%] | inhibition at 0.3 µM [3] [%] | Percentage inhibition of ligand binding, Adrenergic α2B (30 nM) [2] [%] | SMILES | inhibition at 0.1 µM [3] [%] |
| --- | --- | --- | --- | --- | --- | --- | --- | --- | --- | --- | --- | --- | --- | --- | --- | --- | --- | --- |
| 83 | 87 | 16.4 | 92 | 93 | 91 | 0.89 | 71 | 84 | 25.9 |  |  |  |  |  |  |  | Cc1ccc2c(c1)c1c(n2CC(C)(O)c2ccnc(F)c2)CCN2CCCC12 (single isomer, unassigned) [48b] |  |
|  |  | 19.6 |  |  |  | 0.91 | 72 |  | 14.6 | 71 | 90 | 96 | 99 | 99 | 89 |  | Cc1cc(F)c2c(c1)c1c(n2CC(C)(O)c2ccncc2)CCN2CCCC12 (single isomer, unassigned) [81a] |  |
